These results are taken from US9617266B2, “Imidazopyrimidine derivatives” (Merck Patent GmbH, priority 2013, dated 2017).

Counter-ions that a name gives are not always drawn.

Sequence of GCN2 (Q9P2K8 whole entry, species assumed): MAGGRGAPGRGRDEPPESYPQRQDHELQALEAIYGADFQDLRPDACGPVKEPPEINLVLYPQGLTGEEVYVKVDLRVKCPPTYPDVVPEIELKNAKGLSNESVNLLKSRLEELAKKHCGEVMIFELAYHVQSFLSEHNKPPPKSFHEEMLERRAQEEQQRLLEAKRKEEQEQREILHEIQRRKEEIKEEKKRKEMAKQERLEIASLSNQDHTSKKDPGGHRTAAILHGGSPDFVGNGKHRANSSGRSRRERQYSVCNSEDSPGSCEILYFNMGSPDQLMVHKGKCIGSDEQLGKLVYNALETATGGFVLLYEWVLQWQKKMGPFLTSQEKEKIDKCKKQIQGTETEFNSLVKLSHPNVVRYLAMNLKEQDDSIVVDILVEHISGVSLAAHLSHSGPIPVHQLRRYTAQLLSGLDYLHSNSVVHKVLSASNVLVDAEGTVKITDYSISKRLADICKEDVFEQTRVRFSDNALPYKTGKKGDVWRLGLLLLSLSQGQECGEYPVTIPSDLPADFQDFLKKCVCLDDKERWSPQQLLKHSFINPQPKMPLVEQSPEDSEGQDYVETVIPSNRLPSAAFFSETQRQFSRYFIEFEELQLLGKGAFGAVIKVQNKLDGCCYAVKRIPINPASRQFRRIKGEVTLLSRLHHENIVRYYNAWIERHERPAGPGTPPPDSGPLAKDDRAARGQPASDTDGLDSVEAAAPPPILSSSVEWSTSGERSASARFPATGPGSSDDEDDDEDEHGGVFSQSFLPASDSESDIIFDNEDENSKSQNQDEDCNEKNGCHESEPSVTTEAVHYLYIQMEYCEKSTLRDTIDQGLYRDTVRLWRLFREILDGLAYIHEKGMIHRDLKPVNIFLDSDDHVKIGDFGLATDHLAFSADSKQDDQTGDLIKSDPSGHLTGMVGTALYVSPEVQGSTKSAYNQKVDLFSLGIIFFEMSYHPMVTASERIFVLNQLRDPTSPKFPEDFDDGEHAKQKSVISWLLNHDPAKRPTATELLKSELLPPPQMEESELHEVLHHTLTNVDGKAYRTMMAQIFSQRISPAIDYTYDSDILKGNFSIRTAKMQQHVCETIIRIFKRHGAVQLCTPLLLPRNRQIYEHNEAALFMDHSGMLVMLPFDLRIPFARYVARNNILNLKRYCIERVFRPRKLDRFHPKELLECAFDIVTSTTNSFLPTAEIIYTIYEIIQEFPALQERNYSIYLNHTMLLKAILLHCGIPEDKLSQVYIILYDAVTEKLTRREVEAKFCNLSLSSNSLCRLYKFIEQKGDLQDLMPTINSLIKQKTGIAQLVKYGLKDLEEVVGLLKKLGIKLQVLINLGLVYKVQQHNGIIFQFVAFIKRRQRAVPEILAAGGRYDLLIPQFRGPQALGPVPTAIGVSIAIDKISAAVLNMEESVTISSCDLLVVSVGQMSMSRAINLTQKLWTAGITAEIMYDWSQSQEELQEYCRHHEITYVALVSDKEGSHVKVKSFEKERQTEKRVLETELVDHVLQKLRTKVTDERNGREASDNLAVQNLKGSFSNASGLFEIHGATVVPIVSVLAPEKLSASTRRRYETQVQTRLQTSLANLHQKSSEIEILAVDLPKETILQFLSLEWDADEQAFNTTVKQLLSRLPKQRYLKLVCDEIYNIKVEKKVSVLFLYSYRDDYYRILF

For this experiment, the target named is GCN2 (Homo sapiens, UniProt Q9P2K8). As to the kind of experiment: GCN2 enzyme assay (TR-FRET Lanthascreen, GFP-eIF2alpha phosphorylation). In kind it is biochemical. Conditions: 10 μM ATP, 80 nM GFP-eIF2a substrate, 30 nM GCN2, room temperature. The source says:
GCN2: Assay Principle & Conditions
This assay can quantificate the activity of the serin kinase GCN2 (general control non-derepressible-2).
This kinase is involved in the stress metabolism of cells. It is activated upon starvation (amino acid depletion). Its natural substrate is eIF2a (eukaryotic initiation factor 2 alpha subunit), a translation factor, which gets activated (phosphorylated) by GCN2 in case of an amino acid bottleneck in the cells. This in turn leads to a halt of the protein synthesis. Inhibition of GCN2 results in stopping this mechanism: The cell can not stop protein production upon “starvation” stress.
The assay is run in two steps: the enzymatic reaction and the detection step. In the first step GCN2 is incubated with 10 μM ATP and 80 nM of the GFP-labelled substrate elF2alpha at room temperature.
The enzymatic reaction is stopped by addition of EDTA. The amount of phosphorylated elF2alpha is determined by TR-FRET (Lanthascreen): A complex is formed consisting of antibody and GFP labelled phospho-eIF2a, which allows a FRET upon exitation at 340 nm.
Final Concentrations in the Enzymatic Reaction
Background: In TR-FRET formats the signal depends on donor and acceptor labels being close together.
Regarding `Cn1cc(Nc2ncc3ncn(-c4ccc(-c5cnn(C)c5)cc4)c3n2)cn1` [Compound A21, (1-methyl-1H-pyrazol-4-yl)-{9-[4-(1-methyl-1H-pyrazol-4-yl)-phenyl]-9H-purin-2-yl}-amine], the IC50 – broadly, the concentration that gives 50% inhibition – was less than 1000 nM.

As to `COc1ccc(-n2cnc3cnc(Nc4ccn(C)n4)nc32)cc1` [Compound A19, [9-(4-methoxy-phenyl)-9H-purin-2-yl]-(1-methyl-1H-pyrazol-3-yl)-amine], the IC50 was 1000 to 5000 nM.

The molecule `NC(=O)[C@@H]1CC[C@@H](Nc2ncc3ncn(-c4ccc(I)cc4)c3n2)C1` [Compound A33, (1R,3R)-3-[9-(4-iodo-phenyl)-9H-purin-2-ylamino]-cyclopentanecarboxylic acid amide] came in with an IC50 of 1000 to 5000 nM.

`Cn1cc(-c2ccc(-n3cnc4cnc(N[C@@H]5CC[C@@H](O)C5)nc43)cc2)cn1` (relative stereo) [Compound A30, (trans)-3-{9-[4-(1-Methyl-1H-pyrazol-4-yl)-phenyl]-9H-purin-2-ylamino}-cyclopentanol] showed a half-inhibitory concentration (IC50) of 1000 to 5000 nM.

`COc1ccc(-n2cnc3cnc(Nc4cnn(-c5ccccc5)c4)nc32)cc1` [Compound A20, [9-(4-methoxy-phenyl)-9H-purin-2-yl]-(1-phenyl-1H-pyrazol-4-yl)-amine] showed an IC50 of 5000 to 10000 nM.

Molecule `O[C@H]1CC[C@H](Nc2ncc3ncn(-c4ccc(I)c(F)c4)c3n2)C1` (relative stereo) [Compound A27, (trans)-3-[9-(3-fluoro-4-iodo-phenyl)-9H-purin-2-ylamino]-cyclopentanol] showed an IC50 of 5000 to 10000 nM.

In turn, `Cc1ccc2cc(-n3cnc4cnc(N[C@@H]5CC[C@@H](C(N)=O)C5)nc43)ccc2n1` [Compound A37, (1R,3R)-3-[9-(2-methyl-quinolin-6-yl)-9H-purin-2-ylamino]-cyclopentanecarboxylic acid amide] showed an IC50 of less than 1000 nM.

`CCn1cc(Nc2ncc3ncn(-c4cnn(CC)c4)c3n2)cn1` [Compound A4, N,9-bis-(1-ethyl-1H-pyrazol-4-yl)-9H-purin-2-amine]: the IC50 is less than 1000 nM.

`COc1ccc(-n2cnc3cnc(Nc4cn[nH]c4)nc32)cc1` [Compound A18, [9-(4-methoxy-phenyl)-9H-purin-2-yl]-(1H-pyrazol-4-yl)-amine] registered an IC50 of less than 1000 nM.

The molecule `CCn1cc(Nc2ncc3ncn(-c4ccc(C(=O)NCC(O)CO)cc4)c3n2)cn1` (stereo not shown) [Compound A22, N-(2,3-dihydroxy-propyl)-4-[2-(1-ethyl-1H-pyrazol-4-ylamino)-purin-9-yl]-benzamide] returned an IC50 of 1000 to 5000 nM.

`CCOc1ccc(-n2cnc3cnc(Nc4cnn(CCCC5CCNCC5)c4)nc32)cc1` [Compound A11, 9-(4-ethoxyphenyl)-N-(1-(3-(piperidin-4-yl)propyl)-1H-pyrazol-4-yl)-9H-purin-2-amine hydrochloride] displayed an IC50 of less than 1000 nM.

Turning to `Cn1cc(Nc2ncc3nc(N)n(-c4ccc(-c5cnn(C6CCNCC6)c5)cc4)c3n2)cn1` [Compound A26, N2-(1-methyl-1H-pyrazol-4-yl)-9-[4-(1-piperidin-4-yl-1H-pyrazol-4-yl)-phenyl]-9H-purine-2,8-diamine], the IC50 fell in the range of 1000 to 5000 nM.

As for `COCCOc1ccc(-n2cnc3cnc(N[C@@H]4CC[C@@H](C(N)=O)C4)nc32)cc1` [Compound A34, (1R,3R)-3-{9-[4-(2-methoxy-ethoxy)-phenyl]-9H-purin-2-ylamino}-cyclopentanecarboxylic acid amide], the 50% inhibitory concentration (IC50) was in the range of 1000 to 5000 nM.

As for `CCn1cc(-n2cnc3cnc(Nc4cnn(C5CCOCC5)c4)nc32)cn1` [Compound A5, 9-(1-ethyl-1H-pyrazol-4-yl)-N-(1-(tetrahydro-2H-pyran-4-yl)-1H-pyrazol-4-yl)-9H-purin-2-amine], the IC50 was less than 1000 nM.

`CCn1cc(Nc2ncc3nc(N)n(-c4ccc(C(=O)NCCO)cc4)c3n2)cn1` [Compound A25, 4-[8-amino-2-(1-ethyl-1H-pyrazol-4-ylamino)-purin-9-yl]-N-(2-hydroxy-ethyl)-benzamide] showed an IC50 of 5000 to 10000 nM.

`COCCOc1ccc(-n2cnc3cnc(Nc4cnn(C5CCN(C)CC5)c4)nc32)cc1` [Compound A2, 9-(4-(2-methoxyethoxy)phenyl)-N-(1-(1-methylpiperidin-4-yl)-1H-pyrazol-4-yl)-9H-purin-2-amine] had an IC50 of less than 1000 nM.

The molecule `CCOCCn1cc(-c2ccc(-n3cnc4cnc(N[C@@H]5CC[C@@H](C(N)=O)C5)nc43)cc2)cn1` [Compound A36, (1R,3R)-3-(9-{4-[1-(2-ethoxy-ethyl)-1H-pyrazol-4-yl]-phenyl}-9H-purin-2-ylamino)-cyclopentanecarboxylic acid amide] came in with a half-inhibitory concentration (IC50) of less than 1000 nM.

Consider `CCOc1ccc(-n2cnc3cnc(Nc4cnn(C5CCC(N)CC5)c4)nc32)cc1` (stereo not shown) [Compound A17, N-(1-(4-aminocyclohexyl)-1H-pyrazol-4-yl)-9-(4-ethoxyphenyl)-9H-purin-2-amine hydrochloride], for which the concentration for half-maximal inhibition (IC50) is less than 1000 nM.

In turn, `COCCn1cc(-c2ccc(-n3cnc4cnc(N[C@@H]5CCN(C(=O)CCN6CCN(C)CC6)C5)nc43)cc2)cn1` [Compound A39, 1-[(R)-3-(9-{4-[1-(2-methoxy-ethyl)-1H-pyrazol-4-yl]-phenyl}-9H-purin-2-ylamino)-pyrrolidin-1-yl]-3-(4-methyl-piperazin-1-yl)-propan-1-one] had an IC50 of 1000 to 5000 nM.

`COCCn1cc(-c2ccc(-n3cnc4cnc(N[C@@H]5CC[C@@H](C(N)=O)C5)nc43)cc2F)cn1` [Compound A35, (1R,3R)-3-(9-{3-fluoro-4-[1-(2-methoxy-ethyl)-1H-pyrazol-4-yl]-phenyl}-9H-purin-2-ylamino)-cyclopentanecarboxylic acid amide] returned an IC50 of less than 1000 nM.

As to `COCCn1cc(-c2ccc(-n3cnc4cnc(N[C@@H]5CCNC5)nc43)cc2)cn1` [Compound A38, (9-{4-[1-(2-methoxy-ethyl)-1H-pyrazol-4-yl]-phenyl}-9H-purin-2-yl)-(R)-pyrrolidin-3-yl-amine], the half-inhibitory concentration (IC50) lay in the range of 5000 to 10000 nM.

`NC(=O)[C@@H]1CC[C@@H](Nc2ncc3ncn(-c4ccc(I)c(F)c4)c3n2)C1` [Compound A31, (1R,3R)-3-[9-(3-fluoro-4-iodo-phenyl)-9H-purin-2-ylamino]-cyclopentanecarboxylic acid amide] gave an IC50 of 1000 to 5000 nM.

Regarding `CCOc1ccc(-n2cnc3cnc(N[C@@H]4CC[C@@H](C(N)=O)C4)nc32)cc1` [Compound A32, (1R,3R)-3-[9-(4-ethoxy-phenyl)-9H-purin-2-ylamino]-cyclopentanecarboxylic acid amide], the half-maximal inhibitory concentration (IC50) was in the range of 1000 to 5000 nM.

With `CCOc1ccc(-n2cnc3cnc(Nc4cnn(CCn5cccn5)c4)nc32)cc1` [Compound A10, N-(1-(2-(1H-pyrazol-1-yl)ethyl)-1H-pyrazol-4-yl)-9-(4-ethoxyphenyl)-9H-purin-2-amine], the concentration for half-maximal inhibition (IC50) is less than 1000 nM.

`COc1ccc(-n2cnc3cnc(Nc4cnn(C5CCN(C)CC5)c4)nc32)cc1` [Compound A16, 9-(4-methoxyphenyl)-N-(1-(1-methylpiperidin-4-yl)-1H-pyrazol-4-yl)-9H-purin-2-amine] registered a half-maximal inhibitory concentration (IC50) of less than 1000 nM.

With `CCn1cc(Nc2ncc3ncn(-c4ccc5c(c4)NC(=O)C5(C)C)c3n2)cn1` [Compound A9, 6-(2-((1-ethyl-1H-pyrazol-4-yl)amino)-9H-purin-9-yl)-3,3-dimethylindolin-2-one], the IC50 was less than 1000 nM.

Consider `Fc1cc(-n2cnc3cnc(Nc4cnn(C5CCOCC5)c4)nc32)ccc1Cl` [Compound A12, 9-(4-chloro-3-fluorophenyl)-N-(1-(tetrahydro-2H-pyran-4-yl)-1H-pyrazol-4-yl)-9H-purine-2-amine], for which the 50% inhibitory concentration (IC50) was less than 1000 nM.

`CCOc1ccc(-n2cnc3cnc(Nc4cnn(C5CCN(C)CC5)c4)nc32)cc1` [Compound A1, 9-(4-ethoxyphenyl)-N-(1-(1-methylpiperidin-4-yl)-1H-pyrazol-4-yl)-9H-purin-2-amine] registered an IC50 of less than 1000 nM.

Molecule `CCOc1ccc(-n2c(C)nc3cnc(Nc4cnn(C5CCN(C)CC5)c4)nc32)cc1` [Compound A6, 9-(4-ethoxyphenyl)-8-methyl-N-(1-(1-methylpiperidin-4-yl)-1H-pyrazol-4-yl)-9H-purin-2-amine] showed an IC50 of 1000 to 5000 nM.

Molecule `NC(=O)c1ccc(-n2cnc3cnc(Nc4cnn(C5CCOCC5)c4)nc32)cc1` [Compound A3, 4-(2-((1-(tetrahydro-2H-pyran-4-yl)-1H-pyrazol-4-yl)amino)-9H-purin-9-yl)benzamide] came in with an IC50 of less than 1000 nM.

`COCCn1cc(-c2ccc(-n3cnc4cnc(N[C@H]5CC[C@H](O)C5)nc43)cc2F)cn1` (relative stereo) [Compound A29, (trans)-3-(9-{3-fluoro-4-[1-(2-methoxy-ethyl)-1H-pyrazol-4-yl]-phenyl}-9H-purin-2-ylamino)-cyclopentanol] registered a half-inhibitory concentration (IC50) of 1000 to 5000 nM.

Take `COCCN1CCC(n2cc(Nc3ncc4ncn(-c5ccc(OC)cc5)c4n3)cn2)CC1` [Compound A13, N-(1-(1-(2-methoxyethyl)piperidin-4-yl)-1H-pyrazol-4-yl)-9-(4-methoxyphenyl)-9H-purin-2-amine]: the half-inhibitory concentration (IC50) was less than 1000 nM.

Consider `Cn1cc(Nc2ncc3ncn(-c4ccc(-c5cnn(C6CCNCC6)c5)cc4)c3n2)cn1` [Compound A23, (1-methyl-1H-pyrazol-4-yl)-{9-[4-(1-piperidin-4-yl-1H-pyrazol-4-yl)-phenyl]-9H-purin-2-yl}-amine], for which the IC50 is less than 1000 nM.

`Cn1cc(Nc2ncc3nc(N)n(-c4ccc(-c5cnn(C)c5)cc4)c3n2)cn1` [Compound A24, N2-(1-methyl-1H-pyrazol-4-yl)-9-[4-(1-methyl-1H-pyrazol-4-yl)-phenyl]-9H-purine-2,8-diamine]: the half-maximal inhibitory concentration (IC50) was in the range of 1000 to 5000 nM.
